For one assay, the system named is S. aureus T17. The assay can be described thus: MIC, liquid dilution test (96-well microtitre plate). It counts as cell-based. The settings on record: for MIC: Staphylococcus aureus, T17, read-out: MIC S. aureus T17. How it is done:
The minimum inhibitory concentration (MIC) is the minimum concentration of an antibiotic with which the growth of a test microbe is inhibited over 18-24 h. The inhibitor concentration can in these cases be determined by standard microbiological methods (see, for example, The National Committee for Clinical Laboratory Standards. Methods for dilution antimicrobial susceptibility tests for bacteria that grow aerobically; approved standard-fifth edition. NCCLS document M7-A5 [ISBN 1-56238-394-9]. NCCLS, 940 West Valley Road, Suite 1400, Wayne, Pa. 19087-1898 USA, 2000). The MIC of the compounds of the invention is determined in the liquid dilution test on the 96-well microtitre plate scale. The bacterial microbes are cultivated in a minimal medium (18.5 mM Na2HPO4, 5.7 mM KH2PO4, 9.3 mM NH4Cl, 2.8 mM MgSO4, 17.1 mM NaCl, 0.033 μg/ml thiamine hydrochloride, 1.2 μg/ml nicotinic acid, 0.003 μg/ml biotin, 1% glucose, 25 μg/ml of each proteinogenic amino acid with the exception of phenylalanine; [H.-P. Kroll; unpublished]) with addition of 0.4% BH broth (test medium). In the case of Enterococcus faecium L4001, heat-inactivated fetal calf serum (FCS; GibcoBRL, Germany) is added to the test medium in a final concentration of 10%. Overnight cultures of the test microbes are diluted to an OD578 of 0.001(to 0.01 in the case of enterococci) in fresh test medium, and incubated 1:1 with dilutions of the test substances (1:2 dilution steps) in test medium (200 μl final volume). The cultures are incubated at 37° C. for 18-24 hours; enterococci in the presence of 5% CO2.
The lowest substance concentration in each case at which bacterial growth was no longer visible is defined as the MIC. […] The compounds show a graded antibacterial effect against most of the test microbes.
The S. aureus strain T17 is isolated in vivo. CFW1 mice are infected intraperitoneally with 4×10^7 S. aureus 133 cells per mouse. 0.5 h after the infection, the animals are treated intravenously with 50 mg/kg biphenomycin B. The kidneys are removed from the surviving animals on day 3 after the infection. After homogenization of the organs, the homogenates are plated out as described for RN4220Bi^R on antibiotic-free and antibiotic-containing agar plates and incubated at 37° C. overnight. […] About 20 of these colonies are tested for the biphenomycin B MIC, and a colony with an MIC of >50 μM is selected for further cultivation, and the strain is referred to as T17.

The next assay has as its system E. faecium L4001. Put plainly: MIC, alternative method, agar dilution test. It is filed as cell-based, Enterococcus faecium. Particulars: agar dilution, 1.5% agar with 20% defibrinated horse blood, 5% CO2, 18-24 h; for MIC: Enterococcus faecium, L4001, read-out: MIC E. faecium L4001. How it is done:
The minimum inhibitory concentration (MIC) is the minimum concentration of an antibiotic with which the growth of a test microbe is inhibited over 18-24 h. The inhibitor concentration can be determined by standard microbiological methods using modified medium in an agar dilution test (see, for example, the National Committee for Clinical Laboratory Standards. Methods for dilution antimicrobial susceptibility tests for bacteria that grow aerobically; approved standard-fifth edition. NCCLS document M7-A5 [ISBN 1-56238-394-9]. NCCLS, 940 West Valley Road, Suite 1400, Wayne, PA. 19087-1898 USA, 2000). The bacterial microbes are cultivated on 1.5% agar plates containing 20% defibrinated horse blood. The test microbes, which are incubated on Columbia blood agar plates (Becton-Dickinson) overnight, are diluted in PBS, adjusted to a microbe count of about 5×10^5 microbes/ml and placed as drops (1-3 μl) on test plates. The test substances contain various dilutions of the test substances (1:2 dilution stages). The cultures are incubated at 37° C. in the presence of 5% CO2 for 18-24 hours.
The lowest concentration of each substance at which no visible bacterial growth occurs is defined as the MIC and is reported in μg/ml.
(Agar dilution tests growth on a series of plates holding different concentrations.)

In brackets after ≈: the same amount, converted by molar mass.

This note sets out measurements from patent US7655643B2, “Antibacterial macrocycles with substituted biphenyl” (AiCuris GmbH & Co. KG, priority 2003, dated 2010).

`NC[C@H](O)C[C@@H]1NC(=O)[C@@H](N)Cc2cc(ccc2O)-c2ccc(O)c(c2)C[C@@H](C(=O)O)NC1=O` [Biphenomycin B, biphenomycin B, reference compound]: the “MIC, selected colony T17” value against S. aureus T17 (colony isolated in vivo from mouse kidney) is above 50 µM. In addition, the “MIC S. aureus T17” value against S. aureus T17 (liquid dilution, biphenomycin-resistant strain, 18-24 h) is above 25 µM. Further, the “MIC E. faecium L4001” value against E. faecium L4001 amounted to 0.5 µg/mL (≈ 1.06 µM).
Regarding `CN1C(=O)[C@H](C[C@@H](O)CN)NC(=O)[C@@H](N)Cc2cc(ccc2O)-c2ccc(Cl)c(c2)C[C@H]1C(=O)NCC(O)CN` (stereo partly drawn) [Example 9], the MIC in the assay with S. aureus T17 worked out at 0.7 µM (≈ 0.404 µg/mL); with E. faecium L4001, 16 µg/mL (≈ 27.7 µM).
The corresponding values for `NCCNC(=O)[C@@H]1Cc2cc(ccc2F)-c2ccc(O)c(c2)C[C@H](N)C(=O)N[C@@H](C[C@@H](O)CN)C(=O)N1` [Example 12] are 0.6 µM (≈ 0.31 µg/mL) and 16 µg/mL (≈ 31 µM).
The corresponding values for `NCCNC(=O)[C@@H]1Cc2cccc(c2)-c2ccc(O)c(c2)C[C@H](N)C(=O)N[C@@H](C[C@@H](O)CN)C(=O)N1` [Example 36, (8S,11S,14S)-14-Amino-N-(2-aminoethyl)-11-[(2R) -3-amino-2-hydroxypropyl]-17-hydroxy-10,13-dioxo-9,12-diazatricyclo-[14.3.1.1^2,6]henicosa-1(20),2(21),3,5,16,18-hexaene-8-carboxamide tri(hydrotrifluoroacetate)] are 0.8 µM (≈ 0.399 µg/mL) and 8 µg/mL (≈ 16 µM).

As a reminder, the MIC is the lowest concentration that inhibits growth of the organism.
